Reference: patent US20080269213A1, “8-Hydroxyquinoline compounds and methods thereof” (Wyeth, priority 2006, published 2008)
Where two headings read alike, the source gives them in different places.

Assays:
[1] = biological target: T1, recombinant human Aggrecanase-2 Agg2-Phe628 (Homo sapiens, UniProt Q9UNA0); assay: Aggrecanase 2 in vitro enzyme assay (Agg-2 FRET, quenched fluorescent peptide substrate); assay type: biochemical; design: purified recombinant human Aggrecanase-2 Agg2-Phe628 (MW=41,737); This is a truncated form of full-length human aggrecanase-2; made in house; host or cells: CHO cells; settings: for Agg-2 FRET Median PCT INHIB: concentration not given; for inhibition at 200 µM: read-out: Agg-2 FRET % (printed in FRET IC50 column); for inhibition at […]: @ 2500 nM
T1 sequence (Q9UNA0 262-628 limits assumed): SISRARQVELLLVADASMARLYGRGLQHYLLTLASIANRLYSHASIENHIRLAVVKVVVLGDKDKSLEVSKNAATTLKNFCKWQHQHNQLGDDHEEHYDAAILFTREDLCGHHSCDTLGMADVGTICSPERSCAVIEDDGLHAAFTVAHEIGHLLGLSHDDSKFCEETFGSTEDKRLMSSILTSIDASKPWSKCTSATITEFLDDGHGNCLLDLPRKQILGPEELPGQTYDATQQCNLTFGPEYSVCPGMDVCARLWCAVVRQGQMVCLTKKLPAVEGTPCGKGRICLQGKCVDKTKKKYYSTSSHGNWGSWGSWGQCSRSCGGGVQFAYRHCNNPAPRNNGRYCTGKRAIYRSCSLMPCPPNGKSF
Summary of the method: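 Kinetic fluorescence (λex 340, λem 420 nm) monitored over 40 min at 30 °C after adding 25 μM final Abz/Dnp brevican-based quenched peptide. Enzyme: recombinant truncated human Agg2-Phe628 from CHO, 0.5 μg/ml final, mixed with inhibitor first; buffer HEPES pH 7.5 with NaCl, CaCl2, CHAPS, glycerol; compounds in duplicate.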

[2] = biological target: T2, Agg-1 (Homo sapiens, UniProt O75173); assay: Agg-1 FRET assay; assay type: biochemical; settings: for inhibition at 11 µM: @ 11000 nM; for inhibition at 22.2 µM: @ 22200 nM
T2 sequence (O75173 213-837): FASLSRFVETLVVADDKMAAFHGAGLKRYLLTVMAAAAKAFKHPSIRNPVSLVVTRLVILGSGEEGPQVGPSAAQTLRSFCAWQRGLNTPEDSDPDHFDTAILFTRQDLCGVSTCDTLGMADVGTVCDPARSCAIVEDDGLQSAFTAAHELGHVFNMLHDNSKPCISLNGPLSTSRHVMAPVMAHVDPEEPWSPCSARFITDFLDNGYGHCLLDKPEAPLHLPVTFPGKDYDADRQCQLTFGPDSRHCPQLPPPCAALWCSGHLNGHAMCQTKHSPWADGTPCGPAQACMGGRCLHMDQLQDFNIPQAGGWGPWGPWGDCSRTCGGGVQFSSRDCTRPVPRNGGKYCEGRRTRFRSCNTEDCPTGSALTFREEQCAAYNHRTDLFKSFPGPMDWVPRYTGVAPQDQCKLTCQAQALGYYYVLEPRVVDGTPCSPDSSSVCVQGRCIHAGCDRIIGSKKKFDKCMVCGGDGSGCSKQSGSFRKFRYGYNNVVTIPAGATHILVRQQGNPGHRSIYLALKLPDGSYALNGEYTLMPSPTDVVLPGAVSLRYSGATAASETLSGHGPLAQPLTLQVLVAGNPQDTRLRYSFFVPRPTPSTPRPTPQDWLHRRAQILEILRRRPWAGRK
Text: The Agg-1/Agg-2 FRET data for N-[(8-hydroxyquinolin-2-yl)(phenyl)methyl]-2-phenoxyacetamide and 2-{[(phenoxyacetyl)amino](phenyl)methyl}quinolin-8-yl phenoxyacetate is presented in Table 1.

[3] = read-out: Agg-2 FRET Median IC50

Row | IC50 ([1]; read-out: Agg2 IC50) | IC50 ([2]; read-out: Agg1 IC50) | Structure (SMILES) | other results
1 | 2.4 µM | 22 to 67 µM | O=C(COc1ccc(Br)cc1)NC(c1ccccc1Cl)c1cc(Cl)c2cccnc2c1O (stereo not drawn) [Example 220, 2-(4-bromophenoxy)-N-[(5-chloro-8-hydroxyquinolin-7-yl)(2-chlorophenyl)methyl]acetamide] | 
2 | 1 µM | 7.4 to 20 µM | O=C(COc1ccc2c(c1)OCO2)NC(c1ccccc1Cl)c1cc(Cl)c2cccnc2c1O (stereo not drawn) [Example 221, 2-(1,3-benzodioxol-5-yloxy)-N-[(5-chloro-8-hydroxyquinolin-7-yl)(2-chlorophenyl)methyl]acetamide] | 
3 | 1.2 to 3.7 µM | 7.4 to 20 µM | O=C(CNCc1cccc2ccccc12)NC(c1ccccc1)c1cc(Br)c2cccnc2c1O (stereo not drawn) [Example 222, N-[(5-bromo-8-hydroxyquinolin-7-yl)(phenyl)methyl]-N2-(1-naphthylmethyl)glycinamide] | 
4 | 3.75 µM | > 20 µM | O=C(CNCc1ccccc1)NC(c1ccccc1)c1cc(Cl)c2cccnc2c1O (stereo not drawn) [Example 223, N2-benzyl-N-[(5-chloro-8-hydroxyquinolin-7-yl)(phenyl)methyl]glycinamide] | IC50 [1, 3]: 3.75 µM
5 | 1.56 µM | 17.5 µM | O=C(CNCc1cccc2ccccc12)NC(c1ccccc1)c1cc(Cl)c2cccnc2c1O (stereo not drawn) [Example 224, N-[(5-chloro-8-hydroxyquinolin-7-yl)(phenyl)methyl]-N2-(1-naphthylmethyl)glycinamide] | IC50 [1, 3]: 1.56 µM
6 | 2.75 µM | > 11 µM | O=C(CNCc1ccc2c(c1)OCO2)NC(c1ccccc1)c1cc(Cl)c2cccnc2c1O (stereo not drawn) [Example 226, N^2-(1,3-benzodioxol-5-ylmethyl)-N-[(5-chloro-8-hydroxyquinolin-7-yl)(phenyl)methyl]glycinamide] | IC50 [1, 3]: 2.75 µM
7 | 3.87 µM | > 50 µM | O=C(CNCc1ccccn1)NC(c1ccccc1)c1cc(Cl)c2cccnc2c1O (stereo not drawn) [Example 227, N-[(5-chloro-8-hydroxyquinolin-7-yl)(phenyl)methyl]-N2-(pyridin-2-ylmethyl)glycinamide] | 
8 | > 11 µM | > 67 µM | O=C(CNCc1cccnc1)NC(c1ccccc1)c1cc(Cl)c2cccnc2c1O (stereo not drawn) [Example 228, N-[(5-chloro-8-hydroxyquinolin-7-yl)(phenyl)methyl]-N2-(pyridin-3-ylmethyl)glycinamide] | Agg-2 FRET Median PCT INHIB [1]: 32%
9 | > 11 µM | > 67 µM | O=C(CNCc1ccncc1)NC(c1ccccc1)c1cc(Cl)c2cccnc2c1O (stereo not drawn) [Example 229, N[(5-chloro-8-hydroxyquinolin-7-yl)(phenyl)methyl]-N2-(pyridin-4-ylmethyl)glycinamide] | Agg-2 FRET Median PCT INHIB [1]: 29%
10 | 1.29 µM | > 20 µM | O=C(CNCc1ccc(-c2ccccc2)cc1)NC(c1ccccc1)c1cc(Cl)c2cccnc2c1O (stereo not drawn) [Example 230, N^2-(biphenyl-4-ylmethyl)-N-[(5-chloro-8-hydroxyquinolin-7-yl)(phenyl)methyl]glycinamide] | 
11 | 1.37 µM | ~20 µM | O=C(CNCc1cccc2ccccc12)NC(c1ccccc1Cl)c1cc(Cl)c2cccnc2c1O (stereo not drawn) [Example 231, N-[(5-chloro-8-hydroxyquinolin-7-yl)(2-chlorophenyl)methyl]-N2-(1-naphthylmethyl)glycinamide] | 
12 | 1.8 µM | 13.7 µM | O=C(CNCc1ccc2c(c1)OCO2)NC(c1ccccc1Cl)c1cc(Cl)c2cccnc2c1O (stereo not drawn) [Example 232, N2-(1,3-benzodioxol-5-ylmethyl)-N-[(5-chloro-8-hydroxyquinolin-7-yl)(2-chlorophenyl)methyl]glycinamide] | 
13 |  |  | O=C(COc1ccccc1)NC(c1ccccc1)c1ccc2cccc(O)c2n1 (stereo not drawn) [Example 276, N-[(8-hydroxyquinolin-2-yl)(phenyl)methyl]-2-phenoxyacetamide] | inhibition at 200 µM [1]: 32%; IC50 ([2]; read-out: FRET IC50 Agg-1): 15 µM
14 |  |  | O=C(COc1ccccc1)NC(c1ccccc1)c1ccc2cccc(OC(=O)COc3ccccc3)c2n1 (stereo not drawn) [Example 277, 2-{[(phenoxyacetyl)amino](phenyl)methyl}quinolin-8-yl phenoxyacetate] | inhibition at 200 µM [1]: 52%; IC50 ([2]; read-out: FRET IC50 Agg-1): 4 µM
15 | 1.4 µM |  | O=C(COc1ccccc1)NC(c1cccc2c1OCO2)c1cc(Cl)c2cccnc2c1O (stereo not drawn) [N-[1,3-benzodioxol-4-yl(5-chloro-8-hydroxyquinolin-7-yl)methyl]-2-phenoxyacetamide] | inhibition at 7.4 µM ([2]; @ 7400 nM, read-out: Agg1 %): 54%
16 | 1.56 µM | > 22 µM | O=C(COc1ccccc1)NC(c1ccc2c(c1)OCO2)c1cc(Cl)c2cccnc2c1O (stereo not drawn) [N-[1,3-benzodioxol-5-yl(5-chloro-8-hydroxyquinolin-7-yl)methyl]-2-phenoxyacetamide] | IC50 [1, 3]: 1.56 µM
17 | 1.7 µM |  | O=C(COc1ccccc1)NC(CCc1ccccc1)c1cc(Cl)c2cccnc2c1O (stereo not drawn) [N-[1-(5-chloro-8-hydroxyquinolin-7-yl)-3-phenylpropyl]-2-phenoxyacetamide] | inhibition at 22 µM ([2]; @ 22000 nM, read-out: Agg1 %): 56%
18 | 1.6 µM |  | O=C(COc1ccccc1)NC(/C=C/c1ccccc1)c1cc(Cl)c2cccnc2c1O (stereo not drawn) [N-[(2E)-1-(5-chloro-8-hydroxyquinolin-7-yl)-3-phenylprop-2-en-1-yl]-2-phenoxyacetamide] | inhibition at 7.5 µM ([2]; @ 7500 nM, read-out: Agg1 %): 50%
19 | 50 µM |  | O=C(Cc1ccccc1)NC(/C=C/c1ccccc1)c1cc(Cl)c2cccnc2c1O (stereo not drawn) [N-[(2E)-1-(5-chloro-8-hydroxyquinolin-7-yl)-3-phenylprop-2-en-1-yl]-2-phenylacetamide] | IC50 [1, 3]: 50 µM; inhibition at 20 µM ([2]; @ 20000 nM, read-out: Agg1 %): 45%
20 |  |  | CCC/C=C/C(NC(=O)COc1ccccc1)c1cc(Cl)c2cccnc2c1O (stereo not drawn) [N-[(2E)-1-(5-chloro-8-hydroxyquinolin-7-yl)hex-2-en-1-yl]-2-phenoxyacetamide] | inhibition at […] [1]: 47%; inhibition at 0.8 µM ([2]; @ 800 nM, read-out: Agg1 %): 30%
21 |  |  | CO/C(=C\c1ccccc1)C(NC(=O)COc1ccccc1)c1cc(Cl)c2cccnc2c1O (stereo not drawn) [N-[(2Z)-1-(5-chloro-8-hydroxyquinolin-7-yl)-2-methoxy-3-phenylprop-2-en-1-yl]-2-phenoxyacetamide] | inhibition at […] [1]: 50%; inhibition at 11 µM ([2]; read-out: Agg1 %): 47%
22 |  |  | CCCCOc1ccc(C(NC(=O)COc2ccccc2)c2cc(Cl)c3cccnc3c2O)cc1 (stereo not drawn) [N-[(4-butoxyphenyl)(5-chloro-8-hydroxyquinolin-7-yl)methyl]-2-phenoxyacetamide] | inhibition at […] [1]: 55%; inhibition at 67 µM ([2]; @ 67000 nM, read-out: Agg1 %): 50%
23 | > 67 µM | > 22 µM | O=C(COc1ccccc1)NC(c1ccccc1)c1cc(Cl)c2ccccc2c1O (stereo not drawn) [N-[(4-chloro-1-hydroxy-2-naphthyl)(phenyl)methyl]-2-phenoxyacetamide] | Agg-2 FRET Median PCT INHIB [1]: 31%
24 |  |  | Nc1cc(C(NC(=O)COc2ccccc2)c2ccccc2)c(O)c2ncccc12 (stereo not drawn) [N-[(5-amino-8-hydroxyquinolin-7-yl)(phenyl)methyl]-2-phenoxyacetamide] | inhibition at 22.2 µM ([1]; @ 22200 nM): 50%; inhibition at 22.2 µM ([2]; read-out: Agg1 %): 57%
25 | 5.4 µM | 22 to 67 µM | O=C(CCl)NC(c1ccccc1)c1cc(Br)c2cccnc2c1O (stereo not drawn) [N-[(5-bromo-8-hydroxyquinolin-7-yl)(phenyl)methyl]-2-chloroacetamide] | 
26 | 2.48 µM |  | O=C(COc1ccccc1)NC(c1ccccc1)c1cc(Br)c2cccnc2c1O (stereo not drawn) [N-[(5-bromo-8-hydroxyquinolin-7-yl)(phenyl)methyl]-2-phenoxyacetamide] | IC50 [1, 3]: 2.48 µM; inhibition at 22.2 µM ([2]; read-out: Agg1 %): 64%
27 |  |  | Cn1c(C(NC(=O)COc2ccccc2)c2cc(Cl)c3cccnc3c2O)cc2ccccc21 (stereo not drawn) [N-[(5-chloro-8-hydroxyquinolin-7-yl)(1-methyl-1H-indol-2-yl)methyl]-2-phenoxyacetamide] | inhibition at […] [1]: 57%; inhibition at 11 µM ([2]; read-out: Agg1 %): 48%
